Data: PMC3091225 (The Journal of Biological Chemistry, 2011)

Experiments:
Assay in all cases: direct fluorescence titration of TBG into fluorophore
Assay type in all cases: binding
[1] = molecular target: T1, TBG (wild-type, native, intact reactive loop) (Homo sapiens, UniProt P05543)
T1 sequence (P05543 21-415): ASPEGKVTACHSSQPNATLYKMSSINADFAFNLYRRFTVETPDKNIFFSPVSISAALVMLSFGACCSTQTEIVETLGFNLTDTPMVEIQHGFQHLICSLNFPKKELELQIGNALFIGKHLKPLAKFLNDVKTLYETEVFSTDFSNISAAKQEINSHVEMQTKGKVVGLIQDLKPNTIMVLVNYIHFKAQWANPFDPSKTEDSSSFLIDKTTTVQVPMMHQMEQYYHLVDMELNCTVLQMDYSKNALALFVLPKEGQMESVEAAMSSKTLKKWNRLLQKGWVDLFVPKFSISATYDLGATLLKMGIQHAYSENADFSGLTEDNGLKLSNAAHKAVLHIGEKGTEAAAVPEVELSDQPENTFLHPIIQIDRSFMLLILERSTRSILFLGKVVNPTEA

[2] = molecular target: T2, cleaved TBG (wild-type, reactive loop cleaved) (Homo sapiens, UniProt P05543, DEL124-126/K123A)
T2 sequence (P05543 with tags, fused parts or gaps K123A/DEL124-126): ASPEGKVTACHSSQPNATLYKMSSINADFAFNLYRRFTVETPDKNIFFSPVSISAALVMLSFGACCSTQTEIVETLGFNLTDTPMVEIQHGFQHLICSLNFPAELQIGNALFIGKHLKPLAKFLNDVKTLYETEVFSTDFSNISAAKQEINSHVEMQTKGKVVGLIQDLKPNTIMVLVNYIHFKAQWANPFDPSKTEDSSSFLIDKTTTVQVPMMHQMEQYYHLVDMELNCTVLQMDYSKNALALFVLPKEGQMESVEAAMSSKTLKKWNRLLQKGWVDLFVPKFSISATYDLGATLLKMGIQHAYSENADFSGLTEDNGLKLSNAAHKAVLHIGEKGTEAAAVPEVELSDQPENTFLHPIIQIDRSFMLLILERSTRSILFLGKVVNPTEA

[3] = molecular target: T3, TBG (wild-type, native, intact reactive loop) (Homo sapiens, UniProt P05543, DEL124-126/K123A)
T3 sequence (P05543 with tags, fused parts or gaps K123A/DEL124-126): T2 sequence (P05543 with tags, fused parts or gaps K123A/DEL124-126)

Row | SMILES | Kd [1] [µM] | Kd [2] [µM] | Kd [3] [µM]
1 | O=C(N[C@@H](Cc1cc(I)c(Oc2cc(I)c(O)c(I)c2)c(I)c1)C(=O)O)c1ccc2c(c1)C(=O)OC21c2ccc(O)cc2Oc2cc(O)ccc21 [T4–5-CF] | < 0.0001 |  | 
2 | O=C(N[C@@H](Cc1cc(I)c(Oc2cc(I)c(O)c(I)c2)c(I)c1)C(=O)O)c1ccc2c(c1)C1(OC2=O)c2ccc(O)cc2Oc2cc(O)ccc21 [T4–6-CF] |  | 0.0507 ± 0.0036 | 0.0249 ± 0.0018
